This passage reports GI50 and TGI results from PubChem BioAssay (NCI).

SMILES strings stand for the structures.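 1) Cells in 96-well plates. 2) Compound, 48 h, 5 concentrations. 3) Linear interpolation between surrounding doses. 4) Unreached endpoint = highest concentration. The concentration for 50% growth inhibition is given as GI50. TGI denotes the concentration required for complete inhibition of growth.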 Bounds are passed on as bounds.

Test systems include DU-145 prostate; HS 578T breast; MALME-3M melanoma; NCI-H460 lung; NCI-H522 lung; SF-295 CNS; UACC-62 melanoma.
What all share (assay): NCI tumour cell line growth inhibition, 48 h

With `Cc1nc2sc(C(=O)Nc3cccc(Cl)c3)c(N)c2cc1C(O)c1ccccc1` (centres undefined), the GI50 with DU-145 prostate was 0.923 µM; with HS 578T breast it was 0.351 µM; in the test with MALME-3M melanoma, 0.722 µM; in the test on NCI-H460 lung, 0.379 µM; in the test with NCI-H522 lung, 1.15 µM; in the test on SF-295 CNS, 1.21 µM. In the test with UACC-62 melanoma, the GI50 is 0.757 µM. Further, the TGI with DU-145 prostate amounted to 17.2 µM; with HS 578T breast, 4.89 µM; in the test on MALME-3M melanoma it was 20.4 µM; with NCI-H460 lung, 1.85 µM; with NCI-H522 lung, 18.3 µM; in the test with SF-295 CNS, 13.5 µM. For the same compound, in the test on UACC-62 melanoma, the TGI turned out to be 16 µM.

Regarding `C=C(c1ccc(C(=O)NCCCn2ccnc2)cc1)c1cc2c(cc1C)C(C)(C)CCC2(C)C`, the GI50 is 0.744 µM with DU-145 prostate; 3.2 µM with MALME-3M melanoma; 0.87 µM in the test on NCI-H460 lung; 0.123 µM with NCI-H522 lung; 1.31 µM in the test with SF-295 CNS; 1.67 µM in the test with UACC-62 melanoma. Further, the TGI in the test on DU-145 prostate is over 62.5 µM; in the test with MALME-3M melanoma, 22.4 µM; in the test with NCI-H460 lung, 10.5 µM; with NCI-H522 lung it was 3.72 µM; in the test with SF-295 CNS, 18.7 µM; in the test with UACC-62 melanoma it was 3.92 µM.

Consider `Nc1c([N+](=O)[O-])ncn1C1OC(CO)C(O)C1O` (centres undefined), for which the GI50 in the test on DU-145 prostate, with HS 578T breast, in the test with NCI-H460 lung, with NCI-H522 lung, with SF-295 CNS and with UACC-62 melanoma was over 100 µM each time. In addition, the TGI in the test with DU-145 prostate, in the test with HS 578T breast, in the test on NCI-H460 lung, with NCI-H522 lung, with SF-295 CNS and in the test with UACC-62 melanoma was over 100 µM each time.

Turning to `O=C(Nc1ccc(-n2cc(-c3ccncc3)c(-c3ccc(Cl)c(O)c3)n2)cc1)c1ccc(Cl)c(Cl)c1`, the GI50 in the test on DU-145 prostate is over 100 µM; in the test with HS 578T breast, 3.83 µM; with NCI-H460 lung it was 3.09 µM; in the test with NCI-H522 lung, 5.34 µM; in the test on SF-295 CNS, 1.01 µM; in the test with UACC-62 melanoma, 3.22 µM. For the same compound, the TGI in the test with DU-145 prostate is over 100 µM; in the test with HS 578T breast, over 100 µM; in the test on NCI-H460 lung, over 100 µM; in the test with NCI-H522 lung it was over 100 µM; with SF-295 CNS it was 2.77 µM; in the test on UACC-62 melanoma it was 22.4 µM.

Take `Nc1nc2c([nH]1)c1[nH]c3ccccc3c1c1[nH]c3ccccc3c21`: the GI50 was 13.5 µM with DU-145 prostate; 20.4 µM in the test with HS 578T breast; 1.86 µM in the test on MALME-3M melanoma; 17.2 µM in the test with NCI-H522 lung; 13.9 µM in the test with SF-295 CNS; 15.9 µM with UACC-62 melanoma. For the same compound, the TGI is 26.4 µM in the test on DU-145 prostate; 53.9 µM in the test on HS 578T breast; 4.45 µM with MALME-3M melanoma; 34.1 µM with NCI-H522 lung; 27.5 µM in the test with SF-295 CNS; 30 µM in the test on UACC-62 melanoma.

With `COc1cc(COC(=O)N(C)[C@@H](Cc2ccccc2)C(=O)O)c([N+](=O)[O-])cc1OC`, the TGI in the test on DU-145 prostate, in the test with HS 578T breast, with MALME-3M melanoma, in the test on NCI-H460 lung, in the test with SF-295 CNS and in the test with UACC-62 melanoma was over 100 µM each time.

On to `OCCN1CCCN(CCCN2c3ccccc3Sc3ccc(C(F)(F)F)cc32)CC1`, for which the GI50 in the test on DU-145 prostate is 5.61 µM; with HS 578T breast, 2.04 µM; in the test with MALME-3M melanoma, 2.02 µM; with NCI-H460 lung, 1.95 µM; in the test on NCI-H522 lung, 3.23 µM; in the test on SF-295 CNS it was 1.76 µM. For the same compound, the TGI in the test with DU-145 prostate is 17.8 µM; in the test on HS 578T breast it was 5.89 µM; in the test on MALME-3M melanoma it was 3.82 µM; in the test on NCI-H460 lung, 3.77 µM; with NCI-H522 lung it was 14 µM; in the test with SF-295 CNS it was 3.74 µM.

As for `COC(=O)c1sc(=S)c2sc(C(=O)OC)c(C(=O)OC)c2c1C(=O)OC`, the GI50 with DU-145 prostate is 71.1 µM; in the test with HS 578T breast it was 46.5 µM; in the test on NCI-H460 lung it was 44.3 µM; with NCI-H522 lung, 31 µM; in the test on SF-295 CNS it was 39.3 µM; with UACC-62 melanoma it was 36 µM. In addition, the TGI in the test with DU-145 prostate was over 100 µM; with HS 578T breast, over 100 µM; with NCI-H460 lung, over 100 µM; in the test on NCI-H522 lung, 91.5 µM; in the test on SF-295 CNS, over 100 µM; in the test on UACC-62 melanoma, over 100 µM.

With `CC[C@]1(O)C[C@@H]2CN(CCc3c([nH]c4ccccc34)[C@@](C(=O)OC)(c3cc4c(cc3OC)N(C)[C@H]3[C@@](O)(C(=O)OC)[C@H](OC(=O)CCCBr)[C@]5(CC)C=CCN6CC[C@]43[C@@H]65)C2)C1`, the GI50 was under 0.01 µM in the test on DU-145 prostate, under 0.0185 µM with HS 578T breast, 0.0245 µM in the test on NCI-H460 lung and under 0.01 µM in the test with UACC-62 melanoma. Also, the TGI with DU-145 prostate is 1.43 µM; in the test with NCI-H460 lung it was over 100 µM; with UACC-62 melanoma it was over 100 µM.

For the compound `Cc1cn([C@H]2CN(O)C[C@@H](CO)O2)c(=O)[nH]c1=O`, the TGI in the test with DU-145 prostate, in the test with HS 578T breast, in the test on NCI-H460 lung, in the test with SF-295 CNS and in the test on UACC-62 melanoma was over 100 µM throughout.
